These results are taken from ChEMBL document CHEMBL1201862, “PubChem BioAssay data set” (2004).

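Grown in 96-well plates, cells were treated for 48 hours with each compound at five concentrations. Insufficient inhibition: endpoint recorded as highest concentration tested. GI50 = concentration required for 50% inhibition of growth.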 Active and inactive are the calls of the source. Rule as the data show it: active = GI50 up to about 1.1 µM and inactive = higher.

For orientation: GI50 means the concentration giving 50% growth inhibition.

Among the test systems are ACHN; SK-MEL-5; HCT-116; SW-620; EKVX; SN12C; HCC 2998; PC-3; CAKI-1; SK-MEL-2; SF-539; HL-60; MOLT-4; CCRF-CEM; HOP-62; SK-OV-3; HOP-92; LOX IMVI; K562; SR.
Holding throughout (assay): DTP human tumour cell line panel, 48 h

As to `C=C1[C@@](C)([C@@H]2CCCS2)[C@H]2C(C)=C[C@]1(C)n1c(=O)n(-c3ccccc3)c(=O)n12`, the GI50 with ACHN, in the test on SK-MEL-5, in the test on HCT-116, in the test with SW-620, in the test with EKVX and in the test with SN12C was > 100 µM (inactive) in each case. In addition, the GI50 in the test with HCC 2998, with PC-3, with CAKI-1, in the test on SK-MEL-2, with SF-539 and with HL-60 was > 100 µM (inactive) in each case. The GI50 in the test with MOLT-4, in the test on CCRF-CEM, in the test on HOP-62 and in the test with SK-OV-3 was > 100 µM (inactive) throughout.
As for `O=C(CC(=O)N1N=C(N2CCCCC2)CC1c1ccccc1)Nc1ccc(Cl)cc1` (configuration not stated), the GI50 in the test on ACHN, in the test with SK-MEL-5, with HCT-116, in the test with SW-620, in the test with EKVX and in the test with SN12C was > 100 µM (inactive) each time. In addition, the GI50 in the test on HCC 2998, in the test with HOP-92, in the test on LOX IMVI, in the test on PC-3, in the test on CAKI-1 and in the test on SK-MEL-2 was > 100 µM (inactive) each time. Moreover, the GI50 in the test with HL-60, in the test on MOLT-4, in the test with CCRF-CEM and in the test on HOP-62 was > 100 µM (inactive) in each case.
Turning to `CN1N=C(c2ccncc2)OC1c1cccc(F)c1` (configuration not stated), the GI50 with ACHN, with SK-MEL-5, in the test on HCT-116, in the test with SW-620, in the test with EKVX and in the test with SN12C was > 100 µM (inactive) each time. For the same compound, the GI50 in the test on HCC 2998, with LOX IMVI, in the test with PC-3, in the test with SK-MEL-2, in the test on SF-539 and in the test on HL-60 was > 100 µM (inactive) each time. The GI50 with K562, in the test with MOLT-4, with CCRF-CEM, in the test with HOP-62 and with SK-OV-3 was > 100 µM (inactive) in each case.
For the compound `c1ccc2c(c1)ncn2CCn1ccnc1`, the GI50 in the test on ACHN, in the test with SK-MEL-5, with SW-620, in the test with EKVX, in the test on SN12C and in the test with HCC 2998 was > 100 µM (inactive) throughout. Besides, the GI50 in the test with LOX IMVI, in the test on PC-3, in the test on SK-MEL-2, with SF-539, in the test on HL-60 and with K562 was > 100 µM (inactive) throughout. The GI50 in the test on MOLT-4, in the test on CCRF-CEM, with HOP-62 and in the test on SK-OV-3 was > 100 µM (inactive) each time.
Regarding `COC(=O)c1cc(OS(=O)(=O)C(F)(F)F)c(=O)n2c1CCCC2`, the GI50 in the test on ACHN, in the test with SK-MEL-5, with HCT-116, in the test on SW-620, with EKVX and in the test on SN12C was > 100 µM (inactive) each time. Besides, the GI50 in the test on LOX IMVI, in the test on PC-3, in the test on CAKI-1, in the test on SK-MEL-2, in the test with SF-539 and in the test on HL-60 was > 100 µM (inactive) in each case. The GI50 in the test on MOLT-4, in the test on CCRF-CEM, with HOP-62 and with SK-OV-3 was > 100 µM (inactive) each time.
On to `C=CCCCC1CCCNC1=S` (configuration not stated), for which the GI50 in the test on ACHN, in the test on SK-MEL-5, in the test on HCT-116, in the test with SW-620, in the test on EKVX and in the test with SN12C was > 100 µM (inactive) throughout. Also, the GI50 in the test with HCC 2998, in the test on HOP-92, in the test with PC-3, in the test on CAKI-1, in the test with SK-MEL-2 and in the test with SF-539 was > 100 µM (inactive) each time. In addition, the GI50 in the test with K562, with MOLT-4, with HOP-62 and in the test on SK-OV-3 was > 100 µM (inactive) throughout.
Take `N#CCCN(CCNc1ccccc1)C(=O)Nc1ccc(NC(=O)N(CCC#N)CCNc2ccccc2)cc1`: the GI50 with ACHN, in the test with SK-MEL-5, with HCT-116, with SW-620, in the test on EKVX and in the test on SN12C was > 100 µM (inactive) each time. Besides, the GI50 in the test with HCC 2998 is > 100 µM (inactive); in the test with HOP-92, > 45.9 µM (inactive); with LOX IMVI it was 51.1 µM (inactive); in the test on PC-3 it was > 93.1 µM (inactive); in the test with CAKI-1, > 100 µM (inactive); with SK-MEL-2 it was > 100 µM (inactive). In addition, the GI50 was > 100 µM (inactive) in the test with SF-539; > 100 µM (inactive) with K562; > 100 µM (inactive) in the test on MOLT-4; > 47 µM (inactive) in the test with HOP-62; > 65.6 µM (inactive) in the test on SK-OV-3.
For `CNC(C)Cc1ccc(O)cc1` (configuration not stated), the GI50 in the test on ACHN, in the test on SR, with SK-MEL-5, with HCT-116, in the test on SW-620 and in the test on EKVX was > 100 µM (inactive) each time. Moreover, the GI50 with SN12C, with HCC 2998, in the test on HOP-92, in the test on LOX IMVI, with CAKI-1 and in the test with SK-MEL-2 was > 100 µM (inactive) throughout. Further, the GI50 with SF-539, in the test on HL-60, in the test on K562, with MOLT-4, in the test on CCRF-CEM and with HOP-62 was > 100 µM (inactive) each time. In the test on SK-OV-3, the GI50 was > 100 µM (inactive).
As to `C=C1C(=O)O[C@H]2C(=O)[C@H](C)CCC[C@@](C)(O)/C=C\C[C@@]3(C)O[C@@H]3C[C@@H]12`, the GI50 in the test with ACHN is 8.02 µM (inactive); with SK-MEL-5 it was 15.2 µM (inactive); in the test on HCT-116, 7.29 µM (inactive); in the test with SW-620, 8 µM (inactive); with SN12C it was 17.1 µM (inactive); in the test on HOP-92 it was 10.3 µM (inactive). Moreover, the GI50 in the test on LOX IMVI is 15.8 µM (inactive); in the test on PC-3, 17 µM (inactive); in the test on CAKI-1, 12.9 µM (inactive); in the test on SK-MEL-2, 19.5 µM (inactive); in the test on SF-539 it was 19.3 µM (inactive); in the test on MOLT-4 it was < 0.01 µM (active). Further, the values for the GI50 in the test on CCRF-CEM and in the test with SK-OV-3 were 2.67 µM (inactive) and > 100 µM (inactive), respectively.
